ChEMBL document CHEMBL3259522, “Synthesis and biological evaluation of some 2-(3,5-dimethyl-1H-pyrazol-1-yl)-1-arylethanones: antibacterial, DNA photocleavage, and anticancer activities” (2014)
≈ marks a conversion by molar mass, not a printed value. Calls of active or inactive are those of the source. No cut-off for these calls is given here.

Experiments:
[1] = tested on: Escherichia coli; test: Antibacterial activity against Escherichia coli assessed as diameter of growth inhibition zone after 24 hrs by two fold serial dilution method; assay type: functional
[2] = tested on: Staphylococcus aureus; test: Antibacterial activity against Staphylococcus aureus assessed as diameter of growth inhibition zone after 24 hrs by two fold serial dilution method; assay type: functional
[3] = tested on: Enterococcus; test: Antibacterial activity against Enterococcus assessed as diameter of growth inhibition zone after 24 hrs by two fold serial dilution method; assay type: functional
[4] = tested on: Escherichia coli; test: Antibacterial activity against Escherichia coli assessed as growth inhibition after 24 hrs by two fold serial dilution method; assay type: functional
[5] = tested on: Staphylococcus aureus; test: Antibacterial activity against Staphylococcus aureus assessed as growth inhibition after 24 hrs by two fold serial dilution method; assay type: functional
[6] = tested on: Enterococcus; test: Antibacterial activity against Enterococcus assessed as growth inhibition after 24 hrs by two fold serial dilution method; assay type: functional
[7] = Induction of DNA degradation in supercoiled plasmid DNA (unknown origin) by agarose gel electrophoresis in absence of UV light
[8] = Induction of DNA degradation in open circular plasmid DNA (unknown origin) by agarose gel electrophoresis in absence of UV light
[9] = Induction of DNA photocleavage in supercoiled plasmid DNA (unknown origin) at 60 ug by agarose gel electrophoresis in presence of UV light
[10] = Induction of DNA photocleavage in open circular plasmid DNA (unknown origin) at 60 ug by agarose gel electrophoresis in presence of UV light
[11] = Induction of DNA photocleavage in supercoiled plasmid DNA (unknown origin) at 30 ug by agarose gel electrophoresis in presence of UV light
[12] = Induction of DNA photocleavage in open circular plasmid DNA (unknown origin) at 30 ug by agarose gel electrophoresis in presence of UV light
[13] = Induction of DNA photocleavage in supercoiled plasmid DNA (unknown origin) at 15 ug by agarose gel electrophoresis in presence of UV light
[14] = Induction of DNA photocleavage in open circular plasmid DNA (unknown origin) at 15 ug by agarose gel electrophoresis in presence of UV light
[15] = Induction of DNA photocleavage in supercoiled plasmid DNA (unknown origin) at 5 ug by agarose gel electrophoresis in presence of UV light
[16] = Induction of DNA photocleavage in open circular plasmid DNA (unknown origin) at 5 ug by agarose gel electrophoresis in presence of UV light
[17] = Induction of DNA photocleavage in supercoiled plasmid DNA (unknown origin) at 2.5 ug by agarose gel electrophoresis in presence of UV light
[18] = Induction of DNA photocleavage in open circular plasmid DNA (unknown origin) at 2.5 ug by agarose gel electrophoresis in presence of UV light
[19] = Induction of DNA photocleavage in supercoiled plasmid DNA (unknown origin) at 1 ug by agarose gel electrophoresis in presence of UV light
[20] = Induction of DNA photocleavage in open circular plasmid DNA (unknown origin) at 1 ug by agarose gel electrophoresis in presence of UV light
[21] = tested on: HCT-116; test: Anticancer activity against human HCT116 cells assessed as cell viability after 48 hrs by MTT assay; assay type: functional, cell-based
[22] = tested on: Pseudomonas aeruginosa; test: Antibacterial activity against Pseudomonas aeruginosa assessed as diameter of growth inhibition zone after 24 hrs by two fold serial dilution method; assay type: functional
[23] = tested on: Pseudomonas aeruginosa; test: Antibacterial activity against Pseudomonas aeruginosa assessed as growth inhibition after 24 hrs by two fold serial dilution method; assay type: functional
[24] = tested on: HCT-116; test: Anticancer activity against human HCT116 cells assessed as cell viability at 10 uM after 48 hrs by MTT assay; assay type: functional; conditions: HCT-116, 48 h, read-out: Activity
[25] = tested on: HCT-116; test: Anticancer activity against human HCT116 cells assessed as cell viability at 25 uM after 48 hrs by MTT assay; assay type: functional; conditions: HCT-116, 48 h, read-out: Activity
[26] = tested on: HCT-116; test: Anticancer activity against human HCT116 cells assessed as cell viability at 50 uM after 48 hrs by MTT assay; assay type: functional; conditions: HCT-116, 48 h, read-out: Activity
[27] = tested on: SK-OV-3; test: Anticancer activity against human SKOV3 cells assessed as cell viability after 72 hrs by MTT assay; assay type: functional, cell-based
[28] = tested on: HT-29; test: Anticancer activity against human HT-29 cells assessed as cell viability at 50 uM after 72 hrs by MTT assay; assay type: functional, cell-based
[29] = tested on: DU-145; test: Anticancer activity against human DU145 cells assessed as cell viability at 50 uM after 72 hrs by MTT assay; assay type: functional, cell-based
[30] = tested on: A549; test: Anticancer activity against human A549 cells assessed as cell viability after 72 hrs by MTT assay; assay type: functional, cell-based
[31] = tested on: Klebsiella pneumoniae; test: Antibacterial activity against Klebsiella pneumoniae assessed as diameter of growth inhibition zone after 24 hrs by two fold serial dilution method; assay type: functional
[32] = tested on: Klebsiella pneumoniae; test: Antibacterial activity against Klebsiella pneumoniae assessed as growth inhibition after 24 hrs by two fold serial dilution method; assay type: functional
[33] = tested on: HCT-116; test: Anticancer activity against human HCT116 cells assessed as cell viability after 72 hrs by MTT assay; assay type: functional, cell-based
[34] = tested on: HT-29; test: Anticancer activity against human HT-29 cells assessed as cell viability after 72 hrs by MTT assay; assay type: functional, cell-based
[35] = tested on: DU-145; test: Anticancer activity against human DU145 cells assessed as cell viability after 72 hrs by MTT assay; assay type: functional, cell-based
[36] = tested on: Escherichia coli; test: Antibacterial activity against Escherichia coli assessed as growth inhibition after 24 hrs by two fold serial dilution method relative to ampicillin; assay type: functional; parameters: scale not given: the % may be the effect or the level left
[37] = tested on: Staphylococcus aureus; test: Antibacterial activity against Staphylococcus aureus assessed as growth inhibition after 24 hrs by two fold serial dilution method relative to ampicillin; assay type: functional; parameters: scale not given: the % may be the effect or the level left
[38] = tested on: Pseudomonas aeruginosa; test: Antibacterial activity against Pseudomonas aeruginosa assessed as growth inhibition after 24 hrs by two fold serial dilution method relative to ampicillin; assay type: functional; parameters: scale not given: the % may be the effect or the level left
[39] = tested on: Enterococcus; test: Antibacterial activity against Enterococcus assessed as growth inhibition after 24 hrs by two fold serial dilution method relative to ampicillin; assay type: functional; parameters: scale not given: the % may be the effect or the level left

SMILES	diameter of the inhibition zone (DIZ) [1] [mm]	diameter of the inhibition zone (DIZ) [2] [mm]	diameter of the inhibition zone (DIZ) [3] [mm]	MIC [4] [µg/mL]	MIC [5] [µg/mL]	MIC [6] [µg/mL]	Activity [7]	Activity [8]	Activity [9]	Activity [10]	Activity [21]	diameter of the inhibition zone (DIZ) [22] [mm]	MIC [23] [µg/mL]	viability at 10 µM [24] [%]	viability at 25 µM [25] [%]	viability at 50 µM [26] [%]	Activity [27]	Activity [30]	diameter of the inhibition zone (DIZ) [31] [mm]	MIC [32] [µg/mL]	other results
Cc1cc(C)n(CC(=O)c2ccc(F)cc2F)n1	9	10	10	512 (≈ 2050 µM)	256 (≈ 1020 µM)	512 (≈ 2050 µM)	inactive	inactive	Active	Active	inactive	–	–	–	–	–	–	–	–	–	Activity [11]: Active; Activity [12]: Active; Activity [13]: inactive; Activity [14]: inactive; Activity [15]: inactive; Activity [16]: inactive; Activity [17]: inactive; Activity [18]: inactive; Activity [19]: inactive; Activity [20]: inactive
Cc1cc(C)n(CC(=O)c2ccccc2F)n1	11	10	10	256 (≈ 1100 µM)	256 (≈ 1100 µM)	256 (≈ 1100 µM)	inactive	inactive	–	–	inactive	11	256 (≈ 1100 µM)	–	–	–	–	–	–	–	–
Cc1cc(C)n(CC(=O)c2cccc3ccccc23)n1	–	–	12	–	–	256 (≈ 968 µM)	inactive	inactive	Active	Active	–	–	–	73.4	60.8	34.6	inactive	Active	–	–	Activity [28]: inactive; Activity [29]: inactive
CC1(C)S[C@@H]2[C@H](NC(=O)[C@H](N)c3ccccc3)C(=O)N2[C@H]1C(=O)O [AMPICILLIN]	16	16	18	8 (≈ 22.9 µM)	2 (≈ 5.72 µM)	2 (≈ 5.72 µM)	–	–	–	–	–	14	8 (≈ 22.9 µM)	–	–	–	–	–	13	2 (≈ 5.72 µM)	–
Cc1cc(C)n(CC(=O)c2ccc3ccccc3c2)n1	12	10	15	16 (≈ 60.5 µM)	8 (≈ 30.3 µM)	16 (≈ 60.5 µM)	inactive	inactive	–	–	–	14	64 (≈ 242 µM)	56.8	52.6	36.5	inactive	Active	11	64 (≈ 242 µM)	Activity [33]: Active; Activity [34]: Active; Activity [35]: Active; Activity [36]: 50%; Activity [37]: 25%; Activity [38]: 12.5%; Activity [39]: 12.5%
Cc1cc(C)n(CC(=O)c2cccc(Cl)c2)n1	10	–	10	512 (≈ 2060 µM)	–	512 (≈ 2060 µM)	inactive	inactive	–	–	inactive	–	–	–	–	–	–	–	–	–	–
